Measured values: PMC10324058 (ACS Omega, 2023)
pKi: −log10 of the molar value.

Biological target: α-glucosidase enzyme (Saccharomyces cerevisiae, UniProt P53341)
Assay: Kinetic study against α-glucosidase
Assay type: biochemical, S. cerevisiae

Chain of α-glucosidase enzyme (P53341 whole entry): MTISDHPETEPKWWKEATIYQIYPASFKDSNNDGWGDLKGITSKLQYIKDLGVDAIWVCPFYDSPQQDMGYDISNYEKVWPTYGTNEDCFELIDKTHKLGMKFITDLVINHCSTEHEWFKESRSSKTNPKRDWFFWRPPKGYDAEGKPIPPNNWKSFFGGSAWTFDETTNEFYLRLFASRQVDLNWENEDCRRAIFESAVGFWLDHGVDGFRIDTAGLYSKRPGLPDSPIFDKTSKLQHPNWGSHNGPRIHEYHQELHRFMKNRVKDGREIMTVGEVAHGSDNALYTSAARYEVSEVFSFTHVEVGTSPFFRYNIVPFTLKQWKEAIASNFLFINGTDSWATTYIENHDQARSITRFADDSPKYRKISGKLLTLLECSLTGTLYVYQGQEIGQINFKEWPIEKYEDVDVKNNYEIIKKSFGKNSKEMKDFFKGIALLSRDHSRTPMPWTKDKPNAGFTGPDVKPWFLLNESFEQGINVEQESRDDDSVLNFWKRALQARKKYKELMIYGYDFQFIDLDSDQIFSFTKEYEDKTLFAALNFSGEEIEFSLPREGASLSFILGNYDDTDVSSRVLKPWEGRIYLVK

N#CC1=C(N)Oc2c(c(=O)[nH]c3ccccc23)C1c1cccc(OCc2cn(Cc3ccccc3)nn2)c1 (centres unmarked) [8k, 2-Amino-4-(3-((1-benzyl-1H-1,2,3-triazol-4-yl)methoxy)phenyl)-5-oxo-5,6-dihydro-4H-pyrano[3,2-c]quinoline-3-carbonitrile]
pKi: 5.89 | inhibition mode (Lineweaver–Burk plot: Km increased, Vmax unchanged): competitive inhibitor
